Assay results from patent US20220194959A1, “CRYSTAL FORM OF EGFR INHIBITOR AND PREPARATION METHOD THEREOF” (MEDSHINE DISCOVERY INC., priority 2019, published 2022).

How the values were obtained:
Assay type in all cases: physicochemical
[1] = Hygroscopicity study by dynamic vapor sorption (DVS)
Experimental: 1.4. Dynamic Vapor Sorption, DVS Method
Instrument model: SMS DVS Advantage dynamic vapor sorption apparatus
Test conditions: The sample (10 to 15 mg) is weighed and placed in a DVS sample pan for testing.
The detailed DVS parameters are as follows:
Equilibration: dm/dt=0.01%/min (The shortest time: 10 min, and the longest time: 180 min)
Drying: Dried for 120 min at 0% RH
RH (%) test gradient: 10%
Range of RH (%) test gradient: 0%-90%-0%
The classification of hygroscopicity evaluation is as follows:
10-15 mg of the crystal form A and the crystal form C of the compound of formula (II) were weighed and placed into a DVS sample pan for testing.

[2] = Solubility assay in media with different pHs; conditions: for Solubility (2 hours) / Solubility (24 hours): 37° C.; for Final pH: filtrate of saturated solution; for solubility at 2 h / solubility at 24 h: 37 °C, thermodynamic from solid
Experimental: (§1) 9 parts of 4 mg of the crystal form A of the compound of formula (II) were weighed and added to a 1.5 mL sample bottle, respectively, and then 1 mL of different media (0.1 mol/L HCl, 0.01 mol/L HCl, pH3.8 buffer solution, pH4.5 buffer solution, pH5.5 buffer solution, pH6.0 buffer solution, pH6.8 buffer solution, pH7.4 buffer solution, and water) were added, respectively. Based on the dissolution situation, the raw material compound was continuously added until a saturated solution was formed. The magnetic bar was added to the above suspension, and the suspension was placed on a magnetic stirrer (37° C., protected from light) and stirred. […] The upper layer of the sample was filtered with a filter membrane, and the pH value of the filtrate was determined. The saturated solubility of the compound was determined by HPLC.
as §1, with “C” for “A”

[3] = Stability assay under illumination, high humidity, high temperature and acceleration (related substances and crystal form); set-up: Total impurity: unit not given here; conditions: for Change of crystal form: 10 days
Experimental: The stability of crystal form of the crystal form A and the crystal form C of the compound of formula (II) under the conditions of illumination, high humidity (92.5% RH), high temperature (60° C.) and acceleration (40° C./75% RH) was investigated.
Illumination test chamber, model: SHH-100GD-2, conditions: 5000±500 lux (visible light) and 90 mw/cm^2 (ultraviolet).
Electrothermal blowing dry box, model: GZX-9140MBE, conditions: 60° C.
Constant temperature and humidity chamber, model: LDS-800Y, conditions: 40° C./75% RH.
Constant temperature and humidity chamber, model: SHH-250SD, conditions: 25° C., 92.5% RH.
An appropriate amount of the crystal form A of the compound of formula (II) was weighed and placed in a dry and clean weighing bottle. The sample was spread into a thin layer, and fully exposed to assay conditions (60° C., 92.5% RH, illumination) and acceleration conditions (40° C./75% RH). After 17 days, the compound was taken out and determined for related substances and crystal form. […]

[4] = 0.1 mol/L HCl, pH 1, simulated gastric fluid
[5] = pH 6.8 buffer solution, pH 6.8, aqueous buffer
[6] = pH 7.4 buffer solution, pH 7.4, aqueous buffer

COc1cc2ncnc(Nc3cccc(Cl)c3F)c2cc1N1CC2(CN(C)C2)OC1=O.Cc1ccc(S(=O)(=O)O)cc1 [crystal form C of the compound of formula (II)]
ΔW (weight increase by moisture absorption) ([1]; 25° C. and 80% RH): 3.697%
Classification of hygroscopicity ([1]; 25° C., 80% RH): hygroscopic
Solubility (2 hours) ([2]; 0.01 mol/L HCl): 5666 µg/mL
Solubility (24 hours) ([2]; 0.01 mol/L HCl): 2863 µg/mL
Solubility (2 hours) ([2]; 0.1 mol/L HCl): >10000 µg/mL
Solubility (24 hours) ([2]; 0.1 mol/L HCl): >10000 µg/mL
Solubility (conclusion) ([2]; buffer solutions below pH 6.8 and purified water): high solubility
Final pH ([2]; 0.01 mol/L HCl): 2.863
Final pH ([2]; pH 3.8 buffer solution): 3.928
Final pH ([2]; pH 4.5 buffer solution): 4.560
Final pH ([2]; pH 5.5 buffer solution): 5.528
Final pH ([2]; pH 6.0 buffer solution): 5.708
Final pH ([2]; pH 6.8 buffer solution): 6.625
Final pH ([2]; pH 7.4 buffer solution): 7.142
Final pH ([2]; water): 5.444
Evaluation of dissolution property ([2]; merged cell: 0.1 mol/L HCl, 0.01 mol/L HCl, pH 3.8, 4.5, 5.5, 6.0 buffer solutions and water): High solubility
Evaluation of dissolution property ([2]; merged cell: pH 6.8 and pH 7.4 buffer solutions): Low solubility
Solubility (2 hours) ([2]; pH 3.8 buffer solution): 1612 µg/mL
Solubility (24 hours) ([2]; pH 3.8 buffer solution): 1681 µg/mL
Solubility (2 hours) ([2]; pH 4.5 buffer solution): 1167 µg/mL
Solubility (24 hours) ([2]; pH 4.5 buffer solution): 1186 µg/mL
Solubility (2 hours) ([2]; pH 5.5 buffer solution): 916 µg/mL
Solubility (24 hours) ([2]; pH 5.5 buffer solution): 863 µg/mL
Solubility (2 hours) ([2]; pH 6.0 buffer solution): 699 µg/mL
Solubility (24 hours) ([2]; pH 6.0 buffer solution): 328 µg/mL
Solubility (2 hours) ([2]; pH 6.8 buffer solution): 260 µg/mL
Solubility (24 hours) ([2]; pH 6.8 buffer solution): 71 µg/mL
Solubility (2 hours) ([2]; pH 7.4 buffer solution): 81 µg/mL
Solubility (24 hours) ([2]; pH 7.4 buffer solution): 40 µg/mL
Solubility (2 hours) ([2]; water): 720 µg/mL
Solubility (24 hours) ([2]; water): 646 µg/mL
Stability compared with the crystal form D of the maleate of the compound of formula (I) [3]: better
Related substance at relative retention time 0.24 ([3]; 40° - 75% RH - 10 days): 0.03
Related substance at relative retention time 0.69 ([3]; 40° - 75% RH - 10 days): 0.06
Related substance at relative retention time 0.88 ([3]; 40° - 75% RH - 10 days): 0.04
Related substance at relative retention time 0.92 ([3]; 40° - 75% RH - 10 days): 0.02
Related substance at relative retention time 1.24 ([3]; 40° - 75% RH - 10 days): 0.14
Related substance at relative retention time 1.30 ([3]; 40° - 75% RH - 10 days): 0.17
Related substance at relative retention time 1.81 ([3]; 40° - 75% RH - 10 days): 0.03
Total impurity ([3]; 40° - 75% RH - 10 days): 0.53
Related substance at relative retention time 0.24 ([3]; 60° - 10 days): 0.02
Related substance at relative retention time 0.69 ([3]; 60° - 10 days): 0.26
Related substance at relative retention time 0.88 ([3]; 60° - 10 days): 0.03
Related substance at relative retention time 1.24 ([3]; 60° - 10 days): 0.11
Related substance at relative retention time 1.30 ([3]; 60° - 10 days): 0.17
Related substance at relative retention time 1.81 ([3]; 60° - 10 days): 0.05
Related substance at relative retention time 1.89 ([3]; 60° - 10 days): 0.05
Total impurity ([3]; 60° - 10 days): 0.69
Related substance at relative retention time 0.24 ([3]; 92.5% RH - 10 days): 0.02
Related substance at relative retention time 0.69 ([3]; 92.5% RH - 10 days): 0.04
Related substance at relative retention time 0.88 ([3]; 92.5% RH - 10 days): 0.02
Related substance at relative retention time 1.24 ([3]; 92.5% RH - 10 days): 0.12
Related substance at relative retention time 1.30 ([3]; 92.5% RH - 10 days): 0.17
Total impurity ([3]; 92.5% RH - 10 days): 0.37
Related substance at relative retention time 0.24 ([3]; Illumination - 10 days): 0.02
Related substance at relative retention time 0.69 ([3]; Illumination - 10 days): 0.04
Related substance at relative retention time 0.81 ([3]; Illumination - 10 days): 0.04
Related substance at relative retention time 0.92 ([3]; Illumination - 10 days): 0.05
Related substance at relative retention time 1.15 ([3]; Illumination - 10 days): 0.02
Related substance at relative retention time 1.17 ([3]; Illumination - 10 days): 0.03
Related substance at relative retention time 1.24 ([3]; Illumination - 10 days): 0.11
Related substance at relative retention time 1.30 ([3]; Illumination - 10 days): 0.17
Total impurity ([3]; Illumination - 10 days): 0.40
Related substance at relative retention time 0.24 ([3]; Initial sample): 0.02
Related substance at relative retention time 0.69 ([3]; Initial sample): 0.04
Related substance at relative retention time 0.88 ([3]; Initial sample): 0.02
Related substance at relative retention time 0.92 ([3]; Initial sample): 0.02
Related substance at relative retention time 1.24 ([3]; Initial sample): 0.12
Related substance at relative retention time 1.30 ([3]; Initial sample): 0.17
Total impurity ([3]; Initial sample): 0.42
Change of crystal form ([3]; acceleration (40° C./75% RH)): not changed
Change of crystal form ([3]; high humidity (92.5% RH)): not changed
Change of crystal form ([3]; high temperature (60° C.)): not changed
Change of crystal form ([3]; illumination): not changed
Formation of degradation impurity (conclusion) ([3]; illumination, high temperature, high humidity, acceleration): produces a degradation impurity only under the condition of high temperature

COc1cc2ncnc(Nc3cccc(Cl)c3F)c2cc1N1CC2(CN(C)C2)OC1=O.Cc1ccc(S(=O)(=O)O)cc1
solubility at 2 h ([2]; 0.01 mol/L HCl, pH 2, simulated gastric fluid): 7440 µg/mL
solubility at 2 h [2, 4]: > 10000 µg/mL
solubility at 24 h [2, 4]: > 10000 µg/mL
solubility at 24 h ([2]; pH 5.5 buffer solution, pH 5.5, aqueous buffer): 1300 µg/mL
solubility at 2 h [2, 5]: 354 µg/mL
solubility at 24 h [2, 5]: 73 µg/mL
solubility at 2 h [2, 6]: 99 µg/mL
solubility at 24 h [2, 6]: 22 µg/mL
solubility at 24 h ([2]; water): 1140 µg/mL
